Test results as given in ChEMBL document CHEMBL5338807, “Design and Synthesis of Bouchardatine Derivatives as a Novel AMP-Activated Protein Kinase Activator for the Treatment of Colorectal Cancer” (J Med Chem, 2023).
The source made the active and inactive calls. The calls are words filed in the database; no cut-off is given here.

Assays:
[1] = system: RKO; experiment: Antiproliferative activity against human RKO cells assessed as reduction in cell viability incubated for 24 hrs; assay type: functional, cell-based
[2] = system: RKO; experiment: Inhibition of cell migration of human RKO cells at 1 uM incubated for 48 hrs by wound healing assay; assay type: functional, cell-based
[3] = system: RKO; experiment: Effect on metabolism in human RKO cells assessed as activation of oxidative phosphorylation at 1 uM measured after 24 hrs by seahorse analysis; assay type: functional, cell-based
[4] = system: RKO; experiment: Antiproliferative activity against human RKO cells assessed as inhibition of colony formation at 1 uM measured after 7 days by crystal violet staining based assay; assay type: functional, cell-based; settings: time 7.0 day
[5] = system: RKO; experiment: Effect on metabolism in human RKO cells assessed as oxygen consumption rate by measuring enhancement of proton leak at 0.1 uM measured after 24 hrs by seahorse analysis; assay type: functional, cell-based
[6] = Cytotoxicity against human NCM460 cells assessed as reduction in cell viability incubated for 24 hrs; assay type: toxicity, cell-based
[7] = system: RKO; experiment: Antiproliferative activity against human RKO cells assessed as reduction in cell viability incubated for 24 hrs in presence of FCCP by propidium iodide staining based high-content screening method; assay type: functional
[8] = system: RKO; experiment: Upregulation of mitochondrial complex V in human RKO cells at 0.1 uM incubated for 24 hrs by Western blotting analysis; assay type: functional, cell-based
[9] = system: RKO; experiment: Effect on metabolism in human RKO cells assessed as oxygen consumption rate by measuring enhancement of basal respiration at 0.1 uM measured after 24 hrs by seahorse analysis; assay type: functional, cell-based
[10] = system: RKO; experiment: Effect on metabolism in human RKO cells assessed as enhancement of oxygen consumption rate at 0.1 uM measured after 24 hrs by seahorse analysis; assay type: functional, cell-based
[11] = system: NCM460; experiment: Effect on metabolism in human NCM460 cells assessed as change in extracellular acidification rate at 0.1 uM measured after 24 hrs by seahorse analysis; assay type: functional, cell-based
[12] = system: RKO; experiment: Antiproliferative activity against human RKO cells assessed as reduction in cell density at 0.1 uM measured after 16 hrs by RTCA assay; assay type: functional, cell-based
[13] = system: RKO; experiment: Effect on metabolism in human RKO cells assessed as oxygen consumption rate by measuring enhancement of ATP production at 0.1 uM measured after 24 hrs by seahorse analysis; assay type: functional, cell-based
[14] = system: RKO; experiment: Upregulation of p-AMPK expression in human RKO cells at 0.1 uM incubated for 24 hrs by Western blotting analysis; assay type: functional, cell-based
[15] = system: RKO; experiment: Inhibition of cell migration of human RKO cells at 0.1 uM incubated for 48 hrs by wound healing assay; assay type: functional, cell-based
[16] = Toxicity in BALB/nude mouse xenografted with human RKO cells assessed as body weight loss at 10 mg/kg, ip administered once daily for 25 days; assay type: organism-based; settings: in vivo, 600 h, time 25 day
[17] = system: RKO; experiment: Induction of mitochondrial damage in human RKO cells assessed as decrease in ROS level at 0.1 uM incubated for 24 hrs by DCFH-DA staining based flow cytometric analysis; assay type: functional, cell-based
[18] = system: DLD-1; experiment: Antiproliferative activity against human DLD-1 cells assessed as reduction in cell viability incubated for 24 hrs; assay type: functional, cell-based; settings: DLD-1, 24 h
[19] = system: RKO; experiment: Effect on energy metabolism in human RKO cells assessed as increase in mitochondrial membrane potential at 0.1 uM incubated for 24 hrs by rhodamine 123 staining based flow cytometric analysis; assay type: functional, cell-based
[20] = system: RKO; experiment: Antitumor activity against human RKO cells xenografted in BALB/nude mouse assessed as tumor growth inhibition at 10 mg/kg, ip administered once daily for 25 days; assay type: functional; settings: 600 h, time 25 day
[21] = system: RKO; experiment: Antiproliferative activity against human RKO cells assessed as inhibition of colony formation at 0.1 uM measured after 7 days by crystal violet staining based assay; assay type: functional, cell-based; settings: time 7.0 day
[22] = system: RKO; experiment: Effect on energy metabolism in human RKO cells assessed as increase in AMP level incubated for 24 hrs by luminescence based analysis; assay type: functional, cell-based
[23] = Cytotoxicity against human LX2 cells assessed as reduction in cell viability incubated for 24 hrs; assay type: toxicity, cell-based; settings: LX-2 cells
[24] = system: RKO; experiment: Antiproliferative activity against human RKO cells assessed as cell killing at 0.5 uM measured after 16 hrs by RTCA assay; assay type: functional, cell-based
[25] = Cytotoxicity against human L02 cells assessed as reduction in cell viability incubated for 24 hrs; assay type: toxicity, cell-based
[26] = system: RKO; experiment: Antiproliferative activity against human RKO cells assessed as reduction in cell viability incubated for 24 hrs in presence of FCCP by propidium iodide staining based high-content screening method relative to control; assay type: functional
[27] = system: RKO; experiment: Upregulation of mitochondrial complex III in human RKO cells at 0.1 uM incubated for 24 hrs by Western blotting analysis; assay type: functional, cell-based
[28] = system: RKO; experiment: Antiproliferative activity against human RKO cells assessed as reduction in cell viability incubated for 24 hrs by propidium iodide staining based high-content screening method relative to control; assay type: functional
[29] = system: RKO; experiment: Antitumor activity against human RKO cells xenografted in BALB/nude mouse assessed as activation of p-AMPKalpha at Thr172 residue in tumor tissue at 10 mg/kg, ip administered once daily for 25 days by immunohistochemical based microscopic analysis; assay type: functional, organism-based; settings: time 25.0 day
[30] = system: RKO; experiment: Effect on metabolism in human RKO cells assessed as oxygen consumption rate by measuring enhancement of maximal respiration at 0.1 uM measured after 24 hrs by seahorse analysis; assay type: functional, cell-based
[31] = system: RKO; experiment: Antiproliferative activity against human RKO cells assessed as reduction in cell viability incubated for 24 hrs by propidium iodide staining based high-content screening method; assay type: functional
[32] = system: RKO; experiment: Antiproliferative activity against human RKO cells assessed as reduction in cell viability incubated for 24 hrs in presence of oligomycin by propidium iodide staining based high-content screening method relative to control; assay type: functional
[33] = system: SW480; experiment: Antiproliferative activity against human SW480 cells assessed as reduction in cell viability incubated for 24 hrs; assay type: functional, cell-based; settings: SW480, 24 h
[34] = system: RKO; experiment: Effect on energy metabolism in human RKO cells assessed as upregulation of ATP production incubated for 24 hrs by luminescence based analysis; assay type: functional, cell-based
[35] = system: HCT-116; experiment: Antiproliferative activity against human HCT-116 cells assessed as reduction in cell viability incubated for 24 hrs; assay type: functional, cell-based; settings: HCT-116, 24 h
[36] = system: RKO; experiment: Antiproliferative activity against human RKO cells assessed as reduction in cell viability incubated for 24 hrs in presence of oligomycin by propidium iodide staining based high-content screening method; assay type: functional
[37] = system: RKO; experiment: Effect on energy metabolism in human RKO cells assessed as decrease in ATP production incubated for 24 hrs by luminescence based analysis; assay type: functional, cell-based
[38] = system: RKO; experiment: Effect on metabolism in human RKO cells assessed as enhancement of oxidative phosphorylation at 2 mM measured after 24 hrs by seahorse analysis; assay type: functional, cell-based
[39] = system: RKO; experiment: Effect on energy metabolism in human RKO cells assessed as decrease in AMP level incubated for 24 hrs by luminescence based analysis; assay type: functional, cell-based

Cc1ccc2[nH]c(-c3nc(NCCN(C)C)c4ccccc4n3)c(C=O)c2c1
IC50 [1]: 0.7 µM

C=Cc1c(C)nc(-c2[nH]c3ccccc3c2C(C)=O)nc1NCCCN1CCCC1
IC50 [1]: > 10 µM

O=Cc1c(-c2nc(NCCc3ccccc3)c3ccccc3n2)[nH]c2ccccc12
IC50 [1]: 0.8 µM
inhibition [2]: Active
Activity [3]: inactive
inhibition [4]: Active

COCCNc1nc(-c2[nH]c3ccccc3c2C=O)nc2ccccc12
IC50 [1]: 4.1 µM

O=Cc1c(-c2nc(NCCO)c3ccccc3n2)[nH]c2ccccc12
IC50 [1]: > 10 µM

CN(C)CC(C)(C)CNc1nc(-c2[nH]c3ccccc3c2C=O)nc2ccccc12
IC50 [1]: 5.3 µM

Cc1c(-c2nc(NCCCN3CCN(C)CC3)c3ccccc3n2)[nH]c2ccccc12
IC50 [1]: > 10 µM

COCCCNc1nc(-c2[nH]c3ccccc3c2C=O)nc2ccccc12
IC50 [1]: 1.1 µM

O=Cc1c(-c2nc(NC34CC5CC(CC(C5)C3)C4)c3ccccc3n2)[nH]c2ccccc12
IC50 [1]: > 10 µM

Cc1ccc2[nH]c(-c3nc(NCCN4CCCC4)c4ccccc4n3)c(C=O)c2c1
IC50 [1]: 0.7 µM
inhibition [2]: Active
Activity [3]: Active
inhibition [4]: Active

O=Cc1c(-c2nc(NCCCC(=O)O)c3ccccc3n2)[nH]c2ccccc12
IC50 [1]: > 10 µM

O=Cc1c(-c2nc(NC(=O)c3cccnc3)c3ccccc3n2)[nH]c2ccccc12
IC50 [1]: > 10 µM

Cc1ccc2[nH]c(-c3nc(NCCCN(C)C)c4ccccc4n3)c(C=O)c2c1
IC50 [1]: 2 µM

O=Cc1c(-c2nc(NCC3CCC3)c3ccccc3n2)[nH]c2ccccc12
IC50 [1]: 6.2 µM

O=Cc1c(-c2nc(NCCc3ccc(O)cc3)c3ccccc3n2)[nH]c2ccccc12
Activity [5]: Active
IC50 at 24 h [6]: > 15 µM
IC50 [7]: > 1 µM
Activity [8]: Active
Activity [9]: Active
Activity [10]: Active
Activity [11]: inactive
Activity [12]: Active
Activity [13]: Active
IC50 [1]: 0.1 µM
Activity [14]: Active
inhibition [15]: Active
Activity [16]: Non-Toxic
Activity [17]: Active
IC50 [18]: < 1 µM
Activity [19]: Active
inhibition in vivo at 10 mg/kg [20]: 58.2%
inhibition [21]: Active
Activity [22]: Active
IC50 at 24 h [23]: > 15 µM
Activity [24]: Active
IC50 at 24 h [25]: > 15 µM
inhibition (INH) [26]: 25%
Activity [27]: Active
inhibition (INH) [28]: 92%
Activity [29]: Active
Activity [30]: Active
IC50 [31]: 0.07 µM
inhibition (INH) [32]: 52%
IC50 [33]: < 1 µM
Activity [34]: Active
IC50 [35]: < 1 µM
IC50 [36]: > 1 µM

O=Cc1c(-c2nc(NCCCC(F)(F)F)c3ccccc3n2)[nH]c2ccccc12
IC50 [1]: 4.6 µM

CCN1CCC[C@H]1CNc1nc(-c2[nH]c3ccccc3c2C=O)nc2ccccc12
IC50 [1]: 0.9 µM
inhibition [2]: Active
Activity [3]: Active
inhibition [4]: Active

COc1ccc2[nH]c(-c3nc(NCCCN(C)C)c4ccccc4n3)c(C=O)c2c1
IC50 [1]: 8.1 µM

O=Cc1c(-c2nc(NCC3CC3)c3ccccc3n2)[nH]c2ccccc12
IC50 [1]: 4.8 µM

O=Cc1c(-c2nc(NCC(F)F)c3ccccc3n2)[nH]c2ccccc12
IC50 [1]: 7.9 µM

CC(=O)c1c(-c2nc(NCCN3CCCCC3)c3ccccc3n2)[nH]c2ccccc12
IC50 [1]: 9.5 µM

CN(C)CCCN(CCCN(C)C)c1nc(-c2[nH]c3ccccc3c2C=O)nc2ccccc12
IC50 [1]: 1.8 µM

Cc1ccc(S(=O)(=O)Nc2nc(-c3[nH]c4ccccc4c3C=O)nc3ccccc23)cc1
IC50 [1]: > 10 µM

NC(=O)c1ncn([C@@H]2O[C@H](CO)[C@@H](O)[C@H]2O)c1N
Activity [37]: Active
Activity [38]: Active
Activity [39]: Active

CN(C)CCCNc1nc(-c2[nH]c3ccc(Cl)cc3c2C=O)nc2ccccc12
IC50 [1]: 4.1 µM

CN(C)c1nc(-c2[nH]c3ccccc3c2C=O)nc2ccccc12
IC50 [1]: 4.8 µM
